Results as given in patent US5382670A, “Platelet activating factor antagonists” (priority 1993, dated 1995).
Structures can show the parent of a compound that is named as a salt.

Molecular target: PAF receptor (Oryctolagus cuniculus, UniProt G1TEI7)
Assay: PAF receptor binding assay: inhibition of specific [3H]C18-PAF binding to rabbit platelet membranes
Conditions: 0.6 nM [3H]C18-PAF, 60 min, 22-23 °C, Ki from IC50 (Cheng and Prusoff), read-out: Ki (PAF Receptor Binding Activity)
Protocol: The ability of representative compounds of the present invention to inhibit PAF activity was determined in an in vitro test using the following method.
Citrated whole rabbit blood was obtained from Pel-Freez (Rogers, AR). Rabbit platelets were prepared by centrifugation and washing. The platelets were lysed by freeze-thawing and sonication; platelet membranes were prepared by centrifugation and washing. Final membrane preparations were stored frozen in 10 mM Tris/5 mM MgCl2 /2 mM EDTA (TME buffer, pH 7.0) with 0.25M sucrose added for membrane stabilization.
The standard PAF receptor binding assay contained 10 μg platelet membrane protein, 0.6 nM [^3 H]C18 -PAF (from Amersham or New England Nuclear; specific activity 120-180 Ci/mmol), with and without test compound, in "binding buffer" consisting of TME with 0.25% bovine serum albumin added (Sigma, RIA grade). The final volume of the assay was 100 μl. The assay was conducted in Millititre-GV™ (Millipore Corp.) filtration plates; incubation time was for 60 minutes at room temperature (22°-23° C.). "Specific binding" was operationally defined as the arithmetic difference between "total binding" of 0.6 nM [^3 H]C18 -PAF (in the abasence of added PAF) and "nonspecific binding" (in the presence of 1 μM PAF). After the prescribed incubation, platelet membranes were filtered under vacuum, and washed with 1 milliliter of "binding buffer". The filters were dried and removed. The bound radioactivity was quantitated with a Berthold TLC-Linear Analyzer model LB2842.
Dose-response curves of inhibition of specific [^3 H]C18 -PAF binding by test compounds were conducted in triplicate, with at least four doses covering the active range. Experiments were repeated at least once. IC50 values (concentration producing 50% inhibition) were determined by point-to-point evaluation. Ki values of inhibitory binding constants were calculated according to the method of Cheng and Prusoff [Biochem. Pharmacol. 22 (1973) 3099-3108] whereby [formula]
The values of Ki for representative compounds of the present invention appear in Table 1.

Chain of PAF receptor (G1TEI7 1-342): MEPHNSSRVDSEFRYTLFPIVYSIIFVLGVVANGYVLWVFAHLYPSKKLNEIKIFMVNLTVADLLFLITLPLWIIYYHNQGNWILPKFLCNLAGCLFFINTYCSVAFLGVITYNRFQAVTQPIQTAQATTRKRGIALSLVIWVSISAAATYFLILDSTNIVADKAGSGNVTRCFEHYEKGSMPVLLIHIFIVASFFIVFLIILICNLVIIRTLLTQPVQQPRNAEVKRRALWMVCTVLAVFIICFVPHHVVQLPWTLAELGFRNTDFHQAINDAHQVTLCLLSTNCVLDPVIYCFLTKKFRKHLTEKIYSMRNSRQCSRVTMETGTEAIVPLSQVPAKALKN

SMILES | Ki [nM]
CN(C)C(=O)n1cc(C(=O)[C@@H]2CSC(c3cccnc3)N2C=O)c2ccccc21 (stereo partly drawn) [Example 96, trans-1-dimethylcarbamoyl-3-[2-(3-pyridinyl)-3-formylthiazolid-4-oyl]indole] | 150
CN(C)C(=O)n1cc(C(=O)C2COC(c3cccnc3)N2C=O)c2ccccc21 (stereo not shown) [Example 113, 1-dimethylcarbamoyl-3-[2-(3-pyridinyl)-3,formyloxazolid-4-oyl]indole] | 1300
CCS(=O)(=O)n1cc(C(=O)C2CSC(c3cccnc3)N2)c2ccc(OCc3ccccc3)cc21 (stereo not shown) [Example 73, 1-ethylsulfonyl-3-[2-(3-pyridinyl)thiazolid-4-oyl]-6-phenylmethoxyindole] | 8
O=C(c1c[nH]c2cc(-c3ccccc3)ccc12)C1CSC(c2cccnc2)N1 (stereo not shown) [Example 86, 3-[2-(3-pyridinyl)-thiazolid-4-oyl]-6-phenylindole] | 15
O=C(c1cn(C(=O)c2ccc(Cl)cc2)c2ccccc12)C1CSC(c2cccnc2)N1 (stereo not shown) [Example 44, 1-(4-chlorobenzoyl)-3-[2-(3-pyridinyl)thiazolid-4oyl]indole] | 4
CC(C)(C)NC(=O)n1cc(C(=O)C2CSC(c3cccnc3)N2)c2ccccc21 (stereo not shown) [Example 54] | 9
Cc1[nH]c2cc(OCc3ccccc3)ccc2c1C(=O)C1CSC(c2cccnc2)N1 (stereo not shown) [Example 79, 2-methyl-3-[2-(3-pyridinyl)thiazolid-4-oyl]-6-phenylmethoxyindole] | 16
O=C(c1cn(C(=O)N2CCOCC2)c2ccccc12)C1CSC(c2cccnc2)N1 (stereo not shown) [Example 55, 1-(4-morpholinocarbonyl)-3-[2-(3-pyridinyl)thiazolid-4-oyl]indole] | 2
CN(C)C(=O)n1cc(C(=O)C2CSC(c3cccnc3)N2)c2ccc(OCc3ccc(F)cc3)cc21 (stereo not shown) [Example 75, 1-dimethylcarbamoyl-3-[2-(3-pyridinyl)thiazolid-4-oyl]-6-(4-fluorophenylmethoxy)indole] | 2
CC(C)(C)OC(=O)n1cc(C(=O)C2CSC(c3cccnc3)N2C(N)=O)c2ccccc21 (stereo not shown) [Example 58, 1-tert-butoxycarbonyl-3-[2-(3-pyridinyl)-3-carbamoylthiazolid-4-oyl]indole] | 540
CN(C)C(=O)n1cc(C(=O)C2CSC(c3cccnc3)N2)c2ccc(Cl)cc21 (stereo not shown) [Example 89, 1-dimethylcarbamoyl-3-[2-(3-pyridinyl)thiazolid-4-oyl]-6-chloroindole] | 1
Cc1ccc2c(c1)c(C(=O)C1CSC(c3cccnc3)N1)c(C)n2C(=O)N(C)C (stereo not shown) [Example 69, 1-dimethylcarbamoyl-2,5-dimethyl-3-[2-(3-pyridinyl)thiazolid-4oyl]indole oxalate] | 13
O=C(c1c[nH]c2cc(OCc3cccnc3)ccc12)C1CSC(c2cccnc2)N1 (stereo not shown) [Example 76] | 30
CC(C)(C)OC(=O)n1cc(C(=O)C2CSC(c3cccnc3)N2)c2ccc(OCc3ccccc3)cc21 (stereo not shown) [Example 35, 1-tert-butoxycarbonyl-6-phenylmethoxy-3-[2-(3-pyridinyl)thiazolid-4-oyl]indole oxalate] | 1
O=C(c1c[nH]c2ccccc12)C1CSC(c2cccnc2)N1C(=O)C(F)(F)F (single isomer, unassigned; isomer 1) [Example 102, 3-[2-(3-pyridinyl)-3-trifluoroacetylthiazolid-4-oyl]indole,isomer 1] | 2700
O=C(C1CSC(c2cccnc2)N1)n1ccc2cc(OCc3ccccc3)ccc21 (stereo not shown) [Example 1, 1-[2-(3-pyridinyl)thiazolid-4-oyl]-5-phenylmethoxyindole] | 7
CN(C)C(=O)n1cc(C(=O)C2CSC(c3cccnc3)N2C(=O)C(F)(F)F)c2ccc(OCc3ccccc3)cc21 (single isomer, unassigned; isomer 2) [Example 109, 1-dimethylcarbamoyl-3-[2-[3-pyridinyl)-3-trifluoroacetylthiazolid-4-oyl]-6-phenylmethoxyindole, isomer 2] | 70
CN(C)C(=O)n1cc(C(=O)C2CSC(c3cccnc3)N2C=O)c2ccccc21 (stereo not shown) [Example 91, 1-dimethylcarbamoyl-3-[2-(3-pyridinyl)-3-formylthiazolid-4-oyl]indole] | 37
O=C(c1c[nH]c2cc(C#Cc3ccccc3)ccc12)C1CSC(c2cccnc2)N1 (stereo not shown) [Example 77, 3-[2-(3-pyridinyl)thiazolid-4-oyl]-6-phenylethynylindole] | 9
CCS(=O)(=O)n1cc(C(=O)C2CSC(c3cccnc3)N2)c2ccccc21 (stereo not shown) [Example 62, 1-ethylsulfonyl-3-[2-(3-pyridinyl)thiazolid-4-oyl]indole] | 18
CN(C)C(=O)n1cc(C(=O)C2CSC(c3cccnc3)N2)c2ccc(-c3ccccc3)cc21 (stereo not shown) [Example 87, 1-dimethylcarbamoyl-3-[2-(3-pyridinyl)thiazolid-4-oyl]-6-phenylindole] | 4

Same assay, conditions: Ki (PAF Receptor Binding Activity), 0.6 nM [3H]C18-PAF, 60 min, 22-23 °C, Ki from IC50 (Cheng and Prusoff)

SMILES | Ki [nM]
Cc1[nH]c2ccccc2c1C(=O)C1CSC(c2cccnc2)N1 (stereo not shown) [Example 39] | 23
CCn1cc(C(=O)C2CSC(c3cccnc3)N2)c2ccccc21 (stereo not shown) [Example 27, 1-ethyl-3-[2-(3-pyridinyl)thiazolid-4-oyl]indole oxalate] | 6
Cc1ccc2[nH]c(C)c(C(=O)C3CSC(c4cccnc4)N3)c2c1 (stereo not shown) [Example 66, 2,5-dimethyl-3-[2-[3-pyridinyl)thiazolid-4-oyl]indole oxalate] | 31
COc1ccc2c(C(=O)C3CSC(c4cccnc4)N3)c[nH]c2c1 (stereo not shown) [Example 82, 3-[2-(3-pyridinyl)thiazolid-4-oyl]-6-methoxyindole] | 9
O=C(c1cc2ccccc2[nH]1)C1CSC(c2cccnc2)N1 (stereo not shown) [Example 115, 2-[2-(3-pyridinyl)thiazolid-4-oyl]indole] | 155
COc1cc2ccn(C(=O)C3CSC(c4cccnc4)N3)c2cc1OC (stereo not shown) [Example 13, 1-[2-(3-pyridinyl)thiazolid-4-oyl]-5,6-dimethoxyindole dihydrochloride] | 2400
O=C(C1CSC(c2cccnc2)N1)n1ccc2ccc(F)cc21 (stereo not shown) [Example 14, 1-[2-(3-pyridinyl)thiazolid-4-oyl]-6-fluoroindole] | 67
Cc1cccc2c(C(=O)C3CSC(c4cccnc4)N3)c[nH]c12 (stereo not shown) [Example 25, 3-(2-(3-pyridinyl)thiazolid-4-oyl)-7-methylindole oxalate] | 5
N#Cc1ccc2c(ccn2C(=O)C2CSC(c3cccnc3)N2)c1 (stereo not shown) [Example 10, 1-[2-(3-pyridinyl)thiazolid-4-oyl]-5-cyanoindole dihydrochloride] | 2100
COC(=O)CCn1cc(C(=O)C2CSC(c3cccnc3)N2)c2ccccc21 (stereo not shown) [Example 118, 1-carbomethoxyethyl-3-[2-(3-pyridinyl)thiazolid-4-oyl]indole] | 5
O=C(c1cn(Cc2ccccc2)c2ccccc12)C1CSC(c2cccnc2)N1 (stereo not shown) [Example 46, 1-phenylmethyl-3-[2-(3-pyridinyl)thiazolid-4-oyl]indole] | 50
CS(=O)(=O)n1cc(C(=O)C2CSC(c3cccnc3)N2)c2ccccc21 (stereo not shown) [Example 37, 1-methylsulfonyl-3-[2-(3-pyridinyl)thiazolid-4-oyl-]indole] | 15
Cc1ccc2c(c1)cc(C)n2C(=O)C1CSC(c2cccnc2)N1 (stereo not shown) [Example 4, 1-[2-(3-pyridinyl)thiazolid-4-oyl]-2,5-dimethylindole] | 46
O=C(O)Cn1cc(C(=O)C2CSC(c3cccnc3)N2)c2ccccc21 (stereo not shown) [Example 120, 1-carboxymethyl-3-[2-(3-pyridinyl)thiazolid-4-oyl]indole] | 19
O=C(C1CSC(c2cccnc2)N1)n1ccc2cccnc21 (stereo not shown) [Example 19, 1-[2-(3-pyridinyl)thiazolid-4-oyl]-7-azaindole] | 12500
O=C(c1cn(CC(F)(F)F)c2ccccc12)C1CSC(c2cccnc2)N1 (stereo not shown) [Example 59, 1-trifluoroethyl-3-[2-(3-pyridinyl)thiazolid-4-oyl]indole] | 20
CCOC(=O)Cn1cc(C(=O)C2CSC(c3cccnc3)N2)c2ccccc21 (stereo not shown) [Example 60, 1-ethoxycarbonylmethyl-3-[2-(3-pyridinyl)thiazolid-4-oyl]indole] | 2
CNC(=O)Cn1cc(C(=O)C2CSC(c3cccnc3)N2)c2ccccc21 (stereo not shown) [Example 117, 1-(N-methylcarbamoylmethyl)-3-[2-(3-pyridinyl)thiazolid-4-oyl]indole] | 3

Same assay, conditions: read-out: Ki (PAF Receptor Binding Activity), 0.6 nM [3H]C18-PAF, 60 min, 22-23 °C, Ki from IC50 (Cheng and Prusoff)

SMILES | Ki [nM]
NC(=O)CCn1cc(C(=O)C2CSC(c3cccnc3)N2)c2ccccc21 (stereo not shown) [Example 121] | 6
